Values of other authors, collected in article PMC7451048 (Drug metabolism letters, 2019).

Experiments:
[1] = target: T1, BCRP (Homo sapiens, UniProt Q9UNQ0); conditions: read-out: Km for BCRP; membrane vesicles isolated from human placenta; ref [61]; cited from earlier work
T1 sequence (Q9UNQ0 1-655): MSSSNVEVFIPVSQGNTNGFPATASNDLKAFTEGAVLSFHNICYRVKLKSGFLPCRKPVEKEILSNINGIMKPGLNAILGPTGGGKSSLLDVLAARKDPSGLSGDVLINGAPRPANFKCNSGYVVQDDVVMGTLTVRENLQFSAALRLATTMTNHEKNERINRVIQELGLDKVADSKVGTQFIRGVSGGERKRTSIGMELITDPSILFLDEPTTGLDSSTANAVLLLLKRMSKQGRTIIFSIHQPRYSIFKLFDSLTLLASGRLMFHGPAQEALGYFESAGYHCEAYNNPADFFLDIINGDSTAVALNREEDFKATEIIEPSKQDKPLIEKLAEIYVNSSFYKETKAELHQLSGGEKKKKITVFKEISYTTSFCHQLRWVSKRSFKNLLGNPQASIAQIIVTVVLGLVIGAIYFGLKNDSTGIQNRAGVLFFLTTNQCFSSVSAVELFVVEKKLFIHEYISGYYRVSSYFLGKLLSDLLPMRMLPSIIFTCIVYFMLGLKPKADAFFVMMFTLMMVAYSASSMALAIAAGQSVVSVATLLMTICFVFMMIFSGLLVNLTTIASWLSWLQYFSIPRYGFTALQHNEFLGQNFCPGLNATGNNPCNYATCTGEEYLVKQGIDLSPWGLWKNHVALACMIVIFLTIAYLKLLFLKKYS

[2] = co-administration of clopidogrel and ticlopidine; ref [25]; cited from earlier work
[3] = target: P-gp (Homo sapiens, UniProt P08183); conditions: read-out: Km for P-gp; membrane vesicles isolated from human placenta; ref [61]; cited from earlier work
Chain of P-gp (P08183 whole entry): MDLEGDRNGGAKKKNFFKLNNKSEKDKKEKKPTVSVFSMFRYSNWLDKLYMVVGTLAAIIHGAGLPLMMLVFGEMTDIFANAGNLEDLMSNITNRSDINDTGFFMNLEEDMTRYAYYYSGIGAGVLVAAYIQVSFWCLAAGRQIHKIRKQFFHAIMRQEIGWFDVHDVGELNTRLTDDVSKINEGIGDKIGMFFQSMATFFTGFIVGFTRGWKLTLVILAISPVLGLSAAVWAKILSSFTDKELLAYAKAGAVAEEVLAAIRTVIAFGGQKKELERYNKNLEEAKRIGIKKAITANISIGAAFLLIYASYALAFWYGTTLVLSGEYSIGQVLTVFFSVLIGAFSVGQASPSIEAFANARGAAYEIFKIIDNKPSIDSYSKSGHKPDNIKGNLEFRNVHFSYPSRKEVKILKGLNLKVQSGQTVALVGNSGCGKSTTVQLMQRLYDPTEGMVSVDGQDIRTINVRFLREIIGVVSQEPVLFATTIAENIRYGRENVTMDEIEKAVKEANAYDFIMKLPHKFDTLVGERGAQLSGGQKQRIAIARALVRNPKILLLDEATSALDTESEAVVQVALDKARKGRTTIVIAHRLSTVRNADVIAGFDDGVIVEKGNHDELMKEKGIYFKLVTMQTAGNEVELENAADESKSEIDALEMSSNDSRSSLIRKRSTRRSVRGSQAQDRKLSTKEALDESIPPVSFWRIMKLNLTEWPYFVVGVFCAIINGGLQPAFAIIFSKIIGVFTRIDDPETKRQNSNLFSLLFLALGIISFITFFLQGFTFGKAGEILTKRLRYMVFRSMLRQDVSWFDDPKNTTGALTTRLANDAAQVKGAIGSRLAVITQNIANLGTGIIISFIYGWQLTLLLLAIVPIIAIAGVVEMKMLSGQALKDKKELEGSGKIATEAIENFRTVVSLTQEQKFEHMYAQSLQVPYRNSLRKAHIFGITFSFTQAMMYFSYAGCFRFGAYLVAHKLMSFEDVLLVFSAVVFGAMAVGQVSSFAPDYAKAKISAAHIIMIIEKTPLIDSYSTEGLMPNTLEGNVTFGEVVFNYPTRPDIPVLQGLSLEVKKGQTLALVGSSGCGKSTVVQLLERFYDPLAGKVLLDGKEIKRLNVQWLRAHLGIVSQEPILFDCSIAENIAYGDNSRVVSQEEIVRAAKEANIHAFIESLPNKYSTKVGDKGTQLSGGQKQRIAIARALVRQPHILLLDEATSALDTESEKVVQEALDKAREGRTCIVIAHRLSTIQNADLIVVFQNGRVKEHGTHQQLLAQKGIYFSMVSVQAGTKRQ

For `CC(NC(C)(C)C)C(=O)c1cccc(Cl)c1` (stereo not shown) [BUP, Bupropion], the Km [1] is given as 3 µM, the Difference in half-life [2] is given as “no significant difference” and the “Increase in systemic exposure (AUC)” value [2] is given as 36–61%. For the same compound, the Km [3] was 0.5 µM.
